Measured values published in US9155792B2, “RecA inhibitors with antibiotic activity, compositions and methods of use” (Trustees of Boston University, priority 2006, dated 2015).

Columns and labels:
E. coli RecA protein = target: T1, E. coli RecA protein (Escherichia coli, UniProt P0A7G6); assay: RecA ATPase luciferase assay; format: biochemical; conditions: compounds of FIGS. 2A and 2B
T1 construct: purchased New England Biolabs
Experimental: RecA is a DNA-dependent ATPase (i.e., it catalyzes the reaction adenosine triphosphate [ATP]→adenosine diphosphate [ADP]). An assay was developed for RecA ATPase activity based on detection of the amount of ATP remaining in a reaction mixture following incubation of RecA protein, DNA, and ATP. In the assay, E. coli RecA protein is incubated in reaction buffer with DNA, ATP, and any test compound or compounds for a measured amount of time. The quantity of ATP remaining after the RecA reaction is quantitated using a subsequent luciferase assay. The amount of ATP remaining can be compared to controls containing either a known inhibitor (full inhibition control) or no test compound (full activity control).
Kinase glo, Adenosine triphosphate, Adenosine 5′-O-(3-thiotriphosphate) plus and 384 well plates were obtained from Fisher, M13mp18 Single-stranded DNA, RecA protein, and T4 polynucleotide kinase reaction buffer (70 mM Tris-HCl pH7.5; 10 mM MgCl2; 5 mM DTT) were obtained from New England Biolabs.
Final reaction mixture contains: 0.5 μl of M13 single stranded DNA (250 μg/ml); 1.0 μl of 10×PHK buffer; 0.25 μl of RecA (2 mg/ml); 0.25 μl of 1 mM ATP; 0.25 μl of test compound in DMSO; and 12.0 μl of H2O.
Test compounds are incubated at room temperature in the presence of RecA protein and DNA prior to addition of ATP. This can be achieved by the preparation of two mixes, as indicated below. Desirably, both a no-DNA and a DNA/DMSO-only (i.e., no test compound) control were included.
The following steps are then performed: (1) Add 7.75 μl of mix 1 to the well of a 384 well plate; (2) Add 0.5 μl of the compound of interest; (3) Incubate at room temperature for 5 minutes; (4) Add 2.5 μl of the ATP mix. Incubate at room temperature for 30 minutes; (5) Add 12.5 μl of Promega Kinase glo plus; (6) Incubate at room temp for 10 minutes or more; and (7) Measure luminescence of the reaction.
Tested compounds were obtained from Boston University (1205 compounds from CMLD diversity library, available from Dr. Scott Schauss), IndoFine (66 compounds based on flavone structure), ChemdiV (48 compounds known to be ATPase inhibitors and 720 compounds structurally related to CB101 (described, for example, in U.S. Ser. No. 60/662,038), and Asinex. Five (5) tested compounds were bisflavones and 28 were predicted, based on structural modeling (see, for example, Example 20) to dock with Rec A. Many of the compounds are lipophilic, natural-product-like compounds. Others are flavones, bisflavones, flavonoids, coumarins, and/or heterocyclic compounds.
Percent inhibition is calculated according to the following equation:
[formula] A value of “−1” indicates higher than 50 μg/ml, therefore undetermined

S. aureus cells = assay: Mutation/resistance assay (resistance to ciprofloxacin); format: cell-based
Experimental: This assay measures the rate at which mutant cells arise in the presence of an antibiotic agent. Cells are grown in the presence of antibiotic agent at a concentration above (generally well above, e.g., 4× or 8×) its MIC, and further in the presence or absence of a test agent (that may inhibit or enhance mutation).
Every 24 hours, an aliquot is removed from the culture and is diluted so that the antibiotic agent is no longer present at a concentration above its MIC (e.g., so that the antibiotic agent is present at 0.5×MIC or less). These aliquoted samples are then assayed to determine whether they can grow in the presence of the antibiotic agent. Specifically, when growth is observed in the presence of antibiotic agent at a concentration that is 4×MIC, then resistance is said to have developed. Test compounds can therefore be assayed to assess whether or not they can reduce the incidence of resistance (e.g., by inhibiting mutation).
These aliquoted samples were then assayed to determine whether they can grow in the presence of ciprofloxacin. […]

[1] = tested on: S. aureus strain S3 (ISP 794); assay: Cell-based survival assay, S. aureus strain S3 (RecA+); conditions: 1 μg/ml ciprofloxacin + 25 μg/ml hinokiflavone, 16 hour time point

T1 sequence (P0A7G6 2-353): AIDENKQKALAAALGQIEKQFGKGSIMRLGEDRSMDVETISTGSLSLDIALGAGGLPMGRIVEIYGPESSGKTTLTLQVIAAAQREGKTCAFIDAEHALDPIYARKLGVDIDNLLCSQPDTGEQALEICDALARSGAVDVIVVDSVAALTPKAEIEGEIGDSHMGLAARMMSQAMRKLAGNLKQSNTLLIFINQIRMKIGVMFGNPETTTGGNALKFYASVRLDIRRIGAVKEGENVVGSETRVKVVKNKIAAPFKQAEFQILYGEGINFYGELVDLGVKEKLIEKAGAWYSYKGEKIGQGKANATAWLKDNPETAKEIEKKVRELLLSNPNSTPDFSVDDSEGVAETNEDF

With `O=c1c(O)c(-c2ccc(O)cc2)oc2cc(O)ccc12` [3,7,4′-trihydroxyflavone] the “activity in RecA ATPase screen” value (E. coli RecA protein) was “particularly active”.

With `O=c1cc(-c2ccc(O)cc2)oc2cc(O)c(O)c(O)c12` [6-hydroxy-apigenin] the “activity in RecA ATPase screen” value (E. coli RecA protein) was “particularly active”.

For `O=c1cc(-c2ccc(O)cc2)oc2cc(O[C@@H]3O[C@H](CO)[C@@H](O)[C@H](O)[C@H]3O)cc(O)c12` [apigenin-7-O-glucoside], the “activity in RecA ATPase screen” value (E. coli RecA protein) was “particularly active”.

With `O=c1cc(-c2ccc(O)cc2)oc2cc(O)cc(O)c12` [apigenin] the “activity in RecA ATPase screen” value (E. coli RecA protein) was “particularly active”.

With `O=C(O)c1cn(C2CC2)c2cc(N3CCNCC3)c(F)cc2c1=O` [ciprofloxacin, reference compound] the “Number of Wells in which Growth Observed in Presence of Ciprofloxacin at 4 × MIC” value (“Number of Wells in which Growth Observed” for short) (S. aureus cells; culture grown 0 days in 4×MIC ciprofloxacin, −Hinokiflavone) was 0, the “Number of Wells in which Growth Observed” value (S. aureus cells; culture grown 1 day in 4×MIC ciprofloxacin, −Hinokiflavone) was 1 and the “Number of Wells in which Growth Observed” value (S. aureus cells; culture grown 5 days in 4×MIC ciprofloxacin, −Hinokiflavone) was 2. The “Number of Wells in which Growth Observed” value (S. aureus cells; culture grown 6 days in 4×MIC ciprofloxacin, −Hinokiflavone) was 2, the “Number of Wells in which Growth Observed” value (S. aureus cells; culture grown 7 days in 4×MIC ciprofloxacin, −Hinokiflavone) was 3 and the “Number of Wells in which Growth Observed” value (S. aureus cells; culture grown 10 days in 4×MIC ciprofloxacin, −Hinokiflavone) was 11.

With `O=c1c(O)c(-c2ccc(O)c(O)c2)oc2cc(O)ccc12` [fisetin] the “activity in RecA ATPase screen” value (E. coli RecA protein) was “particularly active”.

For `O=c1cc(-c2ccc(Oc3c(O)cc4oc(-c5ccc(O)cc5)cc(=O)c4c3O)cc2)oc2cc(O)cc(O)c12` [hinokiflavone], the “Number of Wells in which Growth Observed” value (S. aureus cells; culture grown 0 days in 4×MIC ciprofloxacin, +Hinokiflavone (25 μg/ml)) was 0, the “Number of Wells in which Growth Observed” value (S. aureus cells; culture grown 1 day in 4×MIC ciprofloxacin, +Hinokiflavone (25 μg/ml)) was 0 and the “Number of Wells in which Growth Observed” value (S. aureus cells; culture grown 5 days in 4×MIC ciprofloxacin, +Hinokiflavone (25 μg/ml)) was 0. The “Number of Wells in which Growth Observed” value (S. aureus cells; culture grown 6 days in 4×MIC ciprofloxacin, +Hinokiflavone (25 μg/ml)) was 0, the “Number of Wells in which Growth Observed” value (S. aureus cells; culture grown 7 days in 4×MIC ciprofloxacin, +Hinokiflavone (25 μg/ml)) was 3 and the “Number of Wells in which Growth Observed” value (S. aureus cells; culture grown 10 days in 4×MIC ciprofloxacin, +Hinokiflavone (25 μg/ml)) was 4. The “fewer CFUs in presence of hinokiflavone as compared with its absence” value [1] was “approximately 100 fold”.

With `COc1cc(-c2oc3cc(O)cc(O)c3c(=O)c2O)ccc1O` [isorhamnetin] the “activity in RecA ATPase screen” value (E. coli RecA protein) was “particularly active”.

In the case of `O=c1c(O)c(-c2ccc(O)cc2)oc2cc(O)cc(O)c12` [kaempferol], the “activity in RecA ATPase screen” value (E. coli RecA protein) is reported as “particularly active”.

With `O=C(c1ccc(O)c(O)c1)c1c(O)cc(O)cc1O` [maclurin] the “activity in RecA ATPase screen” value (E. coli RecA protein) was “particularly active”.

For `O=c1c(O)c(-c2ccc(O)cc2O)oc2cc(O)cc(O)c12` [morin], the “activity in RecA ATPase screen” value (E. coli RecA protein) was “particularly active”.

With `O=c1c(O)c(-c2ccc(O)c(O)c2)oc2cc(O)c(O)c(O)c12` [quercetagetin] the “activity in RecA ATPase screen” value (E. coli RecA protein) was “particularly active”.

`O.O.O=c1c(O)c(-c2ccc(O)c(O)c2)oc2cc(O)cc(O)c12` [quercetin dihydrate] was tested, and the “activity in RecA ATPase screen” value (E. coli RecA protein) was “particularly active”.

`O=c1c(O)cc([C@H]2Oc3cc(O)cc(O)c3C[C@H]2O)cc2c([C@H]3Oc4cc(O)cc(O)c4C[C@H]3O)cc(O)c(O)c12` [theaflavin] was tested, and the “activity in RecA ATPase screen” value (E. coli RecA protein) was “particularly active”.
